# Measurements from publication PMC9837764 (Nature Communications, 2023).
# Values joined by “and” are separate entries in the source; they are usually repeats but may differ in a detail not shown here. Equal values may be shown once.
# How the values were obtained:
# [1] = MB-905 and metabolites in rat lung; assay type: in vivo, Sprague-Dawley rats (Rattus norvegicus); settings: 30 mg/kg oral
# Protocol: Noncompartmental data analysis was performed using Phoenix WinNonlin®.
# (§1) Pharmacokinetics in rodent plasma was performed in CD1 mice (Mus musculus, 20–30 g) and Sprague‒Dawley rats (Rattus norvegicus, 250–300 g) of both sexes. […] After oral or intravenous administration, blood samples were collected at times of 0.25, 0.5, 1, 2, 4, 8, and 24 and 0.083, 0.25, 0.5, 1, 2, and 4 h. Parameters such as area under the curve (AUC), time taken to reach the maximum concentration (Tmax), time taken for Cmax to drop in half (T 1/2), volume of distribution, clearance, elimination constant and bioavailability (F) were evaluated. Bioavailability was calculated using the following equation: F (%) = [(intravenous dose x oral AUC)/(oral dose × intravenous AUC)] × 100. […] Animals were treated orally with MB-905 as previously described. Animals were sacrificed at different time points after treatments, and lungs were immediately removed, placed in liquid nitrogen at −80 °C and processed for further analysis. For the analysis of plasma and lung supernatant, UPLC–MS/MS equipment was used.
# Supplementary Fig. 6. Pharmacokinetic and putative metabolites of MB-905 in rats. a, […]
# plasma (n = 6); b, Single oral dose (30 mg/kg bodyweight) pharmacokinetics properties of MB- […]
# mg/kg, p.o.) (n=5) d, Single oral dose (30 mg/kg bodyweight) pharmacokinetics properties of […]
# (30 mg/kg, p.o.) (n=3) f, Single oral dose (30 mg/kg bodyweight) pharmacokinetics properties of […]
# TNF-α = TNF-α in supernatant of SARS-CoV-2-infected human primary monocytes; assay type: cell-based; settings: infected monocytes
# Protocol: Human primary monocytes were obtained after 3 h of plastic adherence of peripheral blood mononuclear cells (PBMCs). The use of primary human cell was approved by Institutional Review Board from the Oswaldo Cruz Foundation under protocol 49971421.8.0000.5248 with signed informed consent in accordance with the Hemotherapy Service of Hospital Clementino Fraga from the Federal University of Rio de Janeiro. All volunteers were de-identified. PBMCs were isolated from healthy donors by density gradient centrifugation (Ficoll-Paque, GE Healthcare). PBMCs (2.0 × 10^6 cells) were plated onto 48-well plates (NalgeNunc) in RPMI-1640 without serum for 2–4 h. Nonadherent cells were removed, and the remaining monocytes were maintained in DMEM with 5% human serum (HS; Millipore) and penicillin/streptomycin. The purity of human monocytes was above 95%, as determined by flow cytometric analysis (FACScan; Becton Dickinson) using anti-CD3 (BD Biosciences, cat # 555342, 1:40), anti-CD16 (Southern Biotech, cat # 561313, 1:20) and APC mouse IgG2a isotype (BD Biosciences, cat # 550882, 1/40) and PE mouse IgG1 isotype (BD Biosciences, 555749, 1/20).
# SARS-CoV-2 = experiment: Yield-reduction assay, SARS-CoV-2 in Calu-3 cells (titers as PFU/mL in Vero cells); settings: for Inhibition of SARS-CoV-2 infectious titers (Fig1B source data, replicates): additional treatment at 24 h; for Inhibition of SARS-CoV-2 infectious titers (Fig1A source data, replicates): one treatment
# [2] = tested on: Salmonella typhimurium TA 98; experiment: Ames test, strain TA 98
# SARS-CoV-2 Gamma VoC [3] = tested on: SARS-CoV-2 Gamma VoC; design: species or system Syrian hamsters (Mesocricetus auratus); settings: hamster, in vivo
# [4] = tested on: Salmonella typhimurium TA 97a; experiment: Ames test, strain TA 97a
# SARS-CoV-2 Gamma VoC [5] = tested on: SARS-CoV-2 Gamma VoC; design: species or system Syrian hamsters (Mesocricetus auratus); settings: hamster, in vivo, 140 mg/kg
# [6] = MB-905 and metabolites in mouse lungs after single oral treatment; assay type: in vivo, mice; settings: individual animals
# Protocol: Fig. 5 Pharmacokinetic and pharmacodynamics in mice. […] Lung metabolites were detected consistently in terms of peak area and duration (c). Transgenic mice expressing the hACE2 receptor to SARS-CoV-2 entry at the age of 10–12 weeks were infected with 10^5 PFU intranasally and treated orally beginning 12–18 h after infection with 140 mg/kg/day. […] (e) are presented.
# as §1
# SARS-CoV-2 RNA = experiment: RNA immunoprecipitation with anti-kinetin antibody, infected Calu-3 cells; assay type: cell-based
# [7] = MB-905-treated infected Calu-3 cells
compound,measurement,setting,value
"c1coc(CNc2ncnc3[nH]cnc23)c1 [MB-905, N6-furfurylaminopurine]","MB-905 in rat lung (Fig4C source data, per animal)",[1]; 1 h,231.05 and 263.97 and 218.08
same,"MB-905 in rat lung (Fig4C source data, per animal)",[1]; 2 h,360.89 and 345.91 and 313.18
same,"MB-905 in rat lung (Fig4C source data, per animal)",[1]; 4 h,100.91 and 155.47 and 69.56
same,"MB-905 in rat lung (Fig4C source data, per animal)",[1]; 8 h,7.77 and 46.28 and 12.38
same,"MB-905 in rat lung (Fig4C source data, per animal)",[1]; 12 h,0
same,SARS-CoV-2-induced TNF and IL-6 levels,TNF-α; 10 µM,diminished
same,"TNF-α levels in the culture supernatant (Fig1D source data, per donor)","TNF-α; drugs at 10 µM, 24 h",0.7 and 0.9 and 0.537 and 2.5 and 0.474 and 3.4
same,EC50,"SARS-CoV-2; Severe acute respiratory syndrome coronavirus 2, Calu-3",0.31 ± 0.05 µM
same,EC50,"SARS-CoV-2; Severe acute respiratory syndrome coronavirus 2, Calu-3, 24 h",0.03 ± 0.004 µM
same,EC90,"SARS-CoV-2; Severe acute respiratory syndrome coronavirus 2, read-out: In vitro EC90 values, range",2.1 to 6.3 µM
same,"Inhibition of SARS-CoV-2 infectious titers (Fig1B source data, replicates)","SARS-CoV-2; Drug 0.001, Calu-3, 48 h",16 and 20 and 22
same,"Inhibition of SARS-CoV-2 infectious titers (Fig1B source data, replicates)",SARS-CoV-2; Drug 0.01,22 and 55 and 63
same,"Inhibition of SARS-CoV-2 infectious titers (Fig1B source data, replicates)",SARS-CoV-2; Drug 0.1,66 and 47 and 65
same,"Inhibition of SARS-CoV-2 infectious titers (Fig1B source data, replicates)",SARS-CoV-2; Drug 1,92 and 72 and 69
same,"Inhibition of SARS-CoV-2 infectious titers (Fig1B source data, replicates)",SARS-CoV-2; Drug 10,98 and 97 and 96
same,"Antiviral activity, SARS-CoV-2 replication",SARS-CoV-2; huh-7 and calu-3 cells (Supplementary Fig. 2),inhibited SARS-CoV-2 replication in a concentration-dependent manner
same,"Inhibition of SARS-CoV-2 infectious titers (Fig1A source data, replicates)","SARS-CoV-2; Drug 0.001, Calu-3, MOI 0.1, 48 h",5 and 4 and 2
same,"Inhibition of SARS-CoV-2 infectious titers (Fig1A source data, replicates)",SARS-CoV-2; Drug 0.01,15 and 4 and 13
same,"Inhibition of SARS-CoV-2 infectious titers (Fig1A source data, replicates)",SARS-CoV-2; Drug 0.1,22 and 39 and 30
same,"Inhibition of SARS-CoV-2 infectious titers (Fig1A source data, replicates)",SARS-CoV-2; Drug 1,60 and 91 and 74
same,"Inhibition of SARS-CoV-2 infectious titers (Fig1A source data, replicates)",SARS-CoV-2; Drug 10,66 and 96 and 88
same,Mutagenicity TA 98 +S9,[2]; 8 µg/mL,-
same,Mutagenicity TA 98 -S9,[2]; 8 µg/mL,-
same,Mutagenicity TA 98 +S9,[2]; 40 µg/mL,-
same,Mutagenicity TA 98 -S9,[2]; 40 µg/mL,-
same,Mutagenicity TA 98 +S9,[2]; 200 µg/mL,-
same,Mutagenicity TA 98 -S9,[2]; 200 µg/mL,-
same,Mutagenicity TA 98 +S9,"[2]; 1,000 µg/mL",-
same,Mutagenicity TA 98 -S9,"[2]; 1,000 µg/mL",-
same,Mutagenicity TA 98 +S9,"[2]; 5,000 µg/mL",-
same,Mutagenicity TA 98 -S9,"[2]; 5,000 µg/mL",-
same,Viral RNA levels,SARS-CoV-2 Gamma VoC [3],did not affect viral RNA levels
same,Infectious virus titers in the lungs,SARS-CoV-2 Gamma VoC [3]; 140 mg/kg,reduced infectious virus titers in the lungs
same,Mutagenicity TA 97a +S9,[4]; 8 µg/mL,-
same,Mutagenicity TA 97a -S9,[4]; 8 µg/mL,-
same,Mutagenicity TA 97a +S9,[4]; 40 µg/mL,-
same,Mutagenicity TA 97a -S9,[4]; 40 µg/mL,-
same,Mutagenicity TA 97a +S9,[4]; 200 µg/mL,-
same,Mutagenicity TA 97a -S9,[4]; 200 µg/mL,-
same,Mutagenicity TA 97a +S9,"[4]; 1,000 µg/mL",-
same,Mutagenicity TA 97a -S9,"[4]; 1,000 µg/mL",-
same,Mutagenicity TA 97a +S9,"[4]; 5,000 µg/mL",-
same,Mutagenicity TA 97a -S9,"[4]; 5,000 µg/mL",-
same,Ames test,[4]; all strains of Supplementary Table 3,negative
same,Lung injury,SARS-CoV-2 Gamma VoC [5],protected this organ
same,MB-905 level (Fig5B),"[6]; 140 mg/kg, 0.25 h",1864 and 2462 and 2409
same,MB-905 level (Fig5B),"[6]; 140 mg/kg, 1 h",2448 and 1951
same,MB-905 level (Fig5B),"[6]; 140 mg/kg, 3 h",1209 and 771 and 2655
same,MB-905 level (Fig5B),"[6]; 140 mg/kg, 8 h",1105 and 110 and 400
same,MB-905 level (Fig5B),"[6]; 140 mg/kg, 12 h",0
same,MB-905 level (Fig5B),"[6]; 500 mg/kg, 0.25 h",5246 and 5640 and 6065
same,MB-905 level (Fig5B),"[6]; 500 mg/kg, 1 h",4146 and 4252 and 4427
same,MB-905 level (Fig5B),"[6]; 500 mg/kg, 3 h",3576 and 2579 and 2846
same,MB-905 level (Fig5B),"[6]; 500 mg/kg, 8 h",3077 and 895 and 2729
same,MB-905 level (Fig5B),"[6]; 500 mg/kg, 12 h",575 and 53 and 0
same,Viral RNA immunoprecipitated with anti-kinetin antibody (Ab) (Fig2C source data),SARS-CoV-2 RNA; [7],149.09 and 145.01 and 123.64 and 134.36
same,Viral RNA immunoprecipitated with isotype control (Iso) (Fig2C source data),SARS-CoV-2 RNA; [7],2.52 and 2.29 and 2.30 and 2.50
same,Enrichment of viral RNA in anti-N6-furfuryladenine IP compared to isotype control and nil-treated cells,SARS-CoV-2 RNA; infected Calu-3 cells,more than 10 fold
